# In US10765114B2, “4-amino-6-(pyridyl and 2-substitutedphenyl)-picolinates and 6-amino-2-(pyridyl and 2-substitutedphenyl)-pyrimidine-4-carboxylates and their use as herbicides” (Dow AgroSciences LLC, priority 2013, dated 2020):
# Like-named read-outs stand apart in the source and are kept apart here.
# Columns and labels:
# [1] = system: Key Broadleaf Weed and Crop Species; test: Post-Emergent Test II (Table 5); format: in vivo; conditions: post-emergence, 336 h, given as numbers; for pest or weed control at 70 g/ha: application rate 70 (kg ai/ha; footnote: g ai/ha); for pest or weed control at 140 g/ha: application rate 140 (kg ai/ha; footnote: g ai/ha)
# Description: (§1) Seeds or nutlets of the desired test plant species were planted in Sun Gro Metro-Mix® 360 planting mixture, which typically has a pH of 6.0 to 6.8 and an organic matter content of about 30 percent, in plastic pots with a surface area of 64 square centimeters. When required to ensure good germination and healthy plants, a fungicide treatment and/or other chemical or physical treatment was applied. The plants were grown for 7-21 days in a greenhouse with an approximate 15 h photoperiod which was maintained at about 23-29° C. during the day and 22-28° C. during the night. Nutrients and water were added on a regular basis and supplemental lighting was provided with overhead metal halide 1000-Watt lamps as necessary. The plants were employed for testing when they reached the first or second true leaf stage.
# (§2) A weighed amount, determined by the highest rate to be tested, of each test compound was placed in a 25 mL glass vial and was dissolved in 4 mL of a 97:3 v/v mixture of acetone and DMSO to obtain concentrated stock solutions. […] The concentrated stock solutions obtained were diluted with 20 mL of an aqueous mixture containing acetone, water, isopropyl alcohol, DMSO, Atplus 411F crop oil concentrate, and Triton® X-155 surfactant in a 48.5:39:10:1.5:1.0:0.02 v/v ratio to obtain spray solutions containing the highest application rates. Additional application rates were obtained by serial dilution of 12 mL of the high rate solution into a solution containing 2 mL of 97:3 v/v mixture of acetone and DMSO and 10 mL of an aqueous mixture containing acetone, water, isopropyl alcohol, DMSO, Atplus 411F crop oil concentrate, and Triton X-155 surfactant in a 48.5:39:10:1.5:1.0:0.02 v/v ratio to obtain ½×, ¼×, ⅛× and 1/16× rates of the high rate. Compound requirements are based upon a 12 mL application volume at a rate of 187 liters per hectare (L/ha). Formulated compounds were applied to the plant material with an overhead Mandel track sprayer equipped with 8002E nozzles calibrated to deliver 187 L/ha over an application area of 0.503 square meters at a spray height of 18 inches (43 cm) above the average plant canopy height. Control plants were sprayed in the same manner with the solvent blank.
# (§3) The treated plants and control plants were placed in a greenhouse as described above and watered by subirrigation to prevent wash-off of the test compounds. After 14 days, the condition of the test plants as compared with that of the untreated plants was determined visually and scored on a scale of 0 to 100 percent where 0 corresponds to no injury and 100 corresponds to complete kill and presented as indicated in Table A. Some of the compounds tested, application rates employed, plant species tested, and results are given in Table 5.
# [2] = system: Key Grass and Sedge Weeds as well as Grass Crops; test: Post-Emergent Test II (Table 6); format: in vivo; conditions: given as numbers; for Visual Growth Reduction (%) 14 Days After Application, CYPSS: CYPSS (CYPES: yellow nutsedge, Cyperus esculentus); for Visual Growth Reduction (%) 14 Days After Application, DIGSA: DIGSA: crabgrass (Digitaria sanguinalis); for Visual Growth Reduction (%) 14 Days After Application, ECHSS: ECHSS (ECHCG: barnyardgrass, Echinochloa crus-galli); for Visual Growth Reduction (%) 14 Days After Application, ORYSS: ORYSS (ORYSA: rice, Oryza sativa); for Visual Growth Reduction (%) 14 Days After Application, ORYSS / Visual Growth Reduction (%) 14 Days After Application, TRZSS / Visual Growth Reduction (%) 14 Days After Application, ZEAMX: crop; for Visual Growth Reduction (%) 14 Days After Application, SETFA: SETFA: giant foxtail (Setaria faberi); for Visual Growth Reduction (%) 14 Days After Application, SORVU: SORVU: johnsongrass (Sorghum vulgare); for Visual Growth Reduction (%) 14 Days After Application, TRZSS: TRZSS (TRZAS: wheat, spring, Triticum aestivum); for Visual Growth Reduction (%) 14 Days After Application, ZEAMX: ZEAMX: maize, corn (Zea mays)
# Description: as §1, §2, §3
# [3] = Abutilon theophrasti, ABUTH: velvetleaf (Abutilon theophrasti), read-out: Visual Growth Reduction (%) 14 Days After Application ABUTH
# [4] = Amaranthus retroflexus, AMARE: redroot pigweed (Amaranthus retroflexus), read-out: Visual Growth Reduction (%) 14 Days After Application AMARE
# [5] = Brassica napus, BRSSS: oilseed rape, canola (Brassica napus), read-out: Visual Growth Reduction (%) 14 Days After Application BRSSS
# [6] = Chenopodium album, CHEAL: lambsquarters (Chenopodium album), read-out: Visual Growth Reduction (%) 14 Days After Application CHEAL
# [7] = Euphorbia heterophylla, EPHHL: wild poinsettia (Euphorbia heterophylla), read-out: Visual Growth Reduction (%) 14 Days After Application EPHHL
# [8] = Helianthus annuus, HELAN: sunflower (Helianthus annuus), read-out: Visual Growth Reduction (%) 14 Days After Application HELAN
# [9] = Viola tricolor, VIOTR: wild pansy (Viola tricolor), read-out: Visual Growth Reduction (%) 14 Days After Application VIOTR
compound,measurement,setting,value
C=Cc1c(C(=O)O)nc(-c2ccc(C(F)(F)F)nc2)c(F)c1N [Compound 101],pest or weed control at 70 g/ha,[1]; [3],85%
same,pest or weed control at 140 g/ha,[1]; [3],85%
same,pest or weed control at 70 g/ha,[1]; [4],100%
same,pest or weed control at 140 g/ha,[1]; [4],100%
same,pest or weed control at 70 g/ha,[1]; [5],70%
same,pest or weed control at 140 g/ha,[1]; [5],80%
same,pest or weed control at 70 g/ha,[1]; [6],100%
same,pest or weed control at 140 g/ha,[1]; [6],98%
same,pest or weed control at 70 g/ha,[1]; [7],98%
same,pest or weed control at 140 g/ha,[1]; [7],100%
same,pest or weed control at 70 g/ha,[1]; [8],80%
same,pest or weed control at 140 g/ha,[1]; [8],85%
same,pest or weed control at 70 g/ha,[1]; [9],75%
same,pest or weed control at 140 g/ha,[1]; [9],80%
same,"Visual Growth Reduction (%) 14 Days After Application, CYPSS",[2]; 70 g ai/ha,80%
same,"Visual Growth Reduction (%) 14 Days After Application, CYPSS",[2]; 140 g ai/ha,80%
same,"Visual Growth Reduction (%) 14 Days After Application, DIGSA",[2]; 70 g ai/ha,0%
same,"Visual Growth Reduction (%) 14 Days After Application, DIGSA",[2]; 140 g ai/ha,10%
same,"Visual Growth Reduction (%) 14 Days After Application, ECHSS",[2]; 70 g ai/ha,80%
same,"Visual Growth Reduction (%) 14 Days After Application, ECHSS",[2]; 140 g ai/ha,60%
same,"Visual Growth Reduction (%) 14 Days After Application, ORYSS",[2]; 70 g ai/ha,40%
same,"Visual Growth Reduction (%) 14 Days After Application, ORYSS",[2]; 140 g ai/ha,95%
same,"Visual Growth Reduction (%) 14 Days After Application, SETFA",[2]; 70 g ai/ha,20%
same,"Visual Growth Reduction (%) 14 Days After Application, SETFA",[2]; 140 g ai/ha,40%
same,"Visual Growth Reduction (%) 14 Days After Application, SORVU",[2]; 70 g ai/ha,45%
same,"Visual Growth Reduction (%) 14 Days After Application, SORVU",[2]; 140 g ai/ha,75%
same,"Visual Growth Reduction (%) 14 Days After Application, TRZSS",[2]; 70 g ai/ha,10%
same,"Visual Growth Reduction (%) 14 Days After Application, TRZSS",[2]; 140 g ai/ha,40%
same,"Visual Growth Reduction (%) 14 Days After Application, ZEAMX",[2]; 70 g ai/ha,0%
same,"Visual Growth Reduction (%) 14 Days After Application, ZEAMX",[2]; 140 g ai/ha,25%
